Test results taken from patent publication US20230390366A1, “PARAPHARMACEUTICAL OR PHARMACEUTICAL COMPOSITION ADMINISTRABLE TO A LIVING BEING, PREFERABLY A HUMAN BEING, COMPRISING AT LEAST ONE ENZYME FOR THE TREATMENT AND/OR PREVENTION OF BACTERIAL INFECTIONS INVOLVING BIOFILM FORMATION” (priority 2020, published 2023).

Experiments:
Type in all cases: cell-based
[1] = system: S. aureus ATCC33591 biofilm; assay: Curative enzyme treatment followed by 24 hours vancomycin, biofilm in 96-well plates, viability (resazurin) and biomass (crystal violet); details: vancomycin 10 mg and 20 mg/L, absence of enzyme treatment
Description: For the tests described below, vancomycin was used as the antibiotic molecule. The antibiotic was added at different concentrations in TGN for 24 hours at 37° C. on the biofilms pretreated with the enzyme composition according to the invention (see the below sections). The biofilm was then washed before carrying out the biomass and viability measurements.
In this model, cell viability was measured indirectly, by measuring the metabolism of cells in the biofilm. Indeed, viability was quantified by tracking changes in the colour of resazurin (7-Hydroxy-3H-phenoxazin-3-one 10 oxide) (prestoBlue, ThermoFisher). […] The quantification of resorufin was carried out by measuring fluorescence. […]
The experimental method for cultivating the strains and forming the biofilm is described in point 1.1 of this document. […] The biofilms were then washed 2× with PBS (200 μl) before biomass and viability were analysed. Biomass was quantified via the CV staining technique following the procedure described in point 1.1. […] The plate containing all the samples was then incubated for 24 hours at 37° C. in the spectraMax M3 plate reader. Fluorescence was measured every 10 minutes for 18 hours (excitation 560 nm, emission 590 nm). […]

S. aureus biofilm [2] = assay: Curative enzyme treatment followed by 24 hours vancomycin, biofilm on titanium coupons, viability by CFU counting; details: vancomycin 20 mg/L
Text: (§1) Two different biofilm models were used: static biofilm in 96-well plate (as described previously) and biofilm on titanium coupons. Titanium was chosen because it is a material widely used in the manufacture of implants (e.g. orthopaedic prostheses, dental implants, heart valves, pacemakers, etc.). The techniques used to measure viability differ between the two models and are detailed below.
(§2) In this model, viability was quantified after detachment and homogenisation of the biofilm via the technique of spreading and counting cells on a TSA culture media (VWR).
(§3) Titanium coupons (n=3 for each condition) were placed in the wells of a 12-well plate and incubated at 37° C. with agitation (50 rpm) for 24 hours in 3 ml of bacterial inoculum at an OD of 0.005 (10^6 CFU/ml) in order to allow biofilm to form. The coupons were then washed 2× with PBS (2 ml) and treated for 1 hour at 37° C. with the composition according to the invention or the solution without enzymes (CT−=20 mM TrisHCl pH7). The coupons were then washed twice with PBS (2 ml) and reincubated in 750 μl of TGN containing 0 or 20 mg/L of vancomycin for 24 hours at 37° C. with agitation (50 rpm). After two washes with PBS (2 ml), the biofilm was detached and homogenised in 2 ml of PBS. Different dilutions were carried out (from 10 to 10) and 10 μl of each dilution was spread on a TSA dish. Colonies (CFU) were counted after 18 hours of incubation at 37° C.
(§4) To analyse the effect of the compositions according to the invention, a statistical test (one-way ANOVA and Tukey's post-hoc test) was carried out. This test compares the fluorescence (viability) or absorbance (biomass) values of the CT− negative control (=treatment with buffer without enzymes) and of the biofilms treated with the enzyme compositions, at each vancomycin concentration. The difference is significant when the pvalue of the statistical test is less than or equal to 0.05 (* used on graphs). When this is specified in the comparative examples, the activity of the various enzyme compositions is compared (one-way ANOVA and post-hoc Tukey test).

[3] = system: S. epidermidis ATCC35984 biofilm; assay: as above; details: vancomycin 20 mg/L, absence of enzyme treatment (CT−, TGN)
Text: as §1, §2, §3, §4

S. aureus biofilm [4] = assay: Curative enzyme treatment (1 hour, 37° C.) of preformed 24-hour biofilm in 96-well plates, residual biomass by crystal violet staining (A570); details: S. aureus ATCC33591 and 7832; 100 U/ml in TGN; vs CT−; 1 biofilm/3 of the panel significantly reduced
Description: The effect of a treatment with the composition according to the invention on the biomass of biofilms was studied in a static model in 96-well plates. The curative enzyme treatment was carried out on a preformed 24-hour biofilm. To test its efficacy in reducing the biomass of biofilms, the composition according to the invention was brought into contact with the biofilm for 1 hour at 37° C. The enzyme solution was then removed, and the detached biomass was removed via rinsing steps. Crystal violet (CV) dye was then used to quantify residual biomass. […] CV staining was quantified via spectrophotometry by measuring the absorbance at 570 nm.
The different strains of S. aureus and P. aeruginosa (Table 1) were inoculated in 5 ml of TGN culture medium (Tryptic Soy Broth VWR+1% glucose+2% NaCl) from 20 μl of a stored glycerol stock at −80° C. […] The plates were then emptied, the biofilm was washed 2× with 200 μl PBS pH 7.5 (Sigma) and dried at 60° C. for 18 h before the biomass was analysed.
To quantify the residual biomass, a 1% CV solution (Sigma) was added to the biofilms at room temperature for 15 min. […] The dye attached to the biofilm was then detached and dissolved with 66% […] and absorbance at 570 nm (A570) was measured in a SpectraMax M3 multimode reader. This absorbance value corresponds to the biomass of the biofilm. […]

[5] = system: S. epidermidis ATCC35984 biofilm; assay: as above; details: 100 U/ml in TGN, vs CT−, 1 biofilm/3 of the panel significantly reduced
MG63 osteoblasts = system: MG63 osteoblasts
Description: Cytotoxicity tests were performed on MG63 osteoblasts and other cell types.

[6] = system: biofilms comprising Candida albicans; assay: Enzyme treatment of biofilms comprising Candida albicans followed by antifungal/antibiotic; details: Candida albicans alone or with S. aureus and/or E. coli; enzymes 30 minutes or 1 hour, then Caspofungin (and Moxifloxacin or Meropenem) 24 hours
Text: The inventors then attempted to treat biofilms comprising Candida albicans, either in monoculture or in complex biofilm models comprising Candida albicans and prokaryotes. Different strains of Candida albicans were used: the ATCC24433 strain, as well as strains isolated from orthopaedic prosthesis infections. Subtilisin (protease from Bacillus licheniformis) and lyticase (from Arthrobacter luteus or Bacillus subtilis) were obtained at Sigma. The other enzymes are those used above.
The antifungal drug Caspofungin (Merck Sharp & Dohme) and, for complex biofilms additionally comprising one or more prokaryotes, the antibiotics Moxifloxacin HCl (Bayer) or Meropenem (Mylan) were used (24 hours of treatment, after the application of enzymes).

CN[C@H](CC(C)C)C(=O)N[C@H]1C(=O)N[C@@H](CC(N)=O)C(=O)N[C@H]2C(=O)N[C@H]3C(=O)N[C@H](C(=O)N[C@H](C(=O)O)c4cc(O)cc(O)c4-c4cc3ccc4O)[C@H](O)c3ccc(c(Cl)c3)Oc3cc2cc(c3O[C@@H]2O[C@H](CO)[C@@H](O)[C@H](O)[C@H]2O[C@H]2C[C@](C)(N)[C@H](O)[C@H](C)O2)Oc2ccc(cc2Cl)[C@H]1O [vancomycin]
effect on viability of the biofilm (in words) ([1]; 20 mM TrisHCl pH7): only very slightly reduces | effect on viability of the biofilm (in words) ([1]; TGN): does not reduce | effect on viability in biofilm (in words) (S. aureus biofilm [2]; S. aureus ATCC33591, titanium coupons, absence of enzyme treatment (CT−, Tris-HCl)): does not decrease viability in biofilm | effect on viability in biofilm (in words) (S. aureus biofilm [2]; S. aureus ATCC33591 and 144-20, absence of enzyme treatment (CT−, TGN)): does not significantly reduce viability in biofilm | effect on viability in biofilm (in words) [3]: does not significantly reduce viability in biofilm

B1: CE1: RNase I (Escherichia coli endoribonuclease, class EC4.6.1) 100 U/ml in TGN (protein, UniProt P21338 24-268, looked up)
Ribonuclease I: LALQAKQYGDFDRYVLALSWQTGFCQSQHDRNRNERDECRLQTETTNKADFLTVHGLWPGLPKSVAARGVDERRWMRFGCATRPIPNLPEARASRMCSSPETGLSLETAAKLSEVMPGAGGRSCLERYEYAKHGACFGFDPDAYFGTMVRLNQEIKESEAGKFLADNYGKTVSRRDFDAAFAKSWGKENVKAVKLTCQGNPAYLTEIQISIKADAINAPLSANSFLPQPHPGNCGKTFVIDKAGY
effect on the decrease in the biomass percentage of the biofilms (in words) (S. aureus biofilm [4]): little or no significant effect | effect on the decrease in the biomass percentage of the biofilms (in words) [5]: little or no significant effect

B2: subtilisin: protease from Bacillus licheniformis (Sigma) (protein, UniProt P00780 106-379, looked up)
Subtilisin Carlsberg: AQTVPYGIPLIKADKVQAQGFKGANVKVAVLDTGIQASHPDLNVVGGASFVAGEAYNTDGNGHGTHVAGTVAALDNTTGVLGVAPSVSLYAVKVLNSSGSGSYSGIVSGIEWATTNGMDVINMSLGGASGSTAMKQAVDNAYAKGVVVVAAAGNSGSSGNTNTIGYPAKYDSVIAVGAVDSNSNRASFSSVGAELEVMAPGAGVYSTYPTNTYATLNGTSMASPHVAGAAALILSKHPNLSASQVRNRLSSTATYLGSSFYYGKGLINVEAAAQ
concentration at which already toxic to osteoblasts (MG63 osteoblasts): about 0.5 U/mL | effect on biofilms comprising Candida albicans (in words) [6]: sensitised biofilms
